Reference: patent US10555987B2, “GHRH agonists for the treatment of ischemic disorders” (UNIVERSITY OF MIAMI, priority 2012, dated 2020)
Marks after values point to notes of the source that are not given here. Non-standard residues stand in square brackets, D forms with d. Residues, ends and D or L forms follow the SMILES beside them. *: point of attachment. Phe(F5) = N[C@@H](Cc1c(F)c(F)c(F)c(F)c1F)C(=O)O; Desaminotyrosyl = O=C(CCc1ccc(O)cc1)*; NMeY = CN[C@@H](Cc1ccc(O)cc1)C(=O)O; Agmatine = N=C(N)NCCCCN*; Nle = CCCC[C@H](N)C(=O)O; Orn = NCCC[C@H](N)C(=O)O; Abu = CC[C@H](N)C(=O)O; GABA = NCCCC(=O)O

Key:
[1] = tested on: myocardial infarction (Fisher-344 rats); experiment: Morphometric analysis of infarct size, rat MI model (Example 13); assay type: in vivo; details: 50 μg/kg s.c. twice daily for 4 weeks; mean ± SEM
Method: (§1) Myocardial infarction (MI) was induced by permanent ligation of the left coronary artery in female 6-month-old Fisher-344 rats. Animals were randomly assigned to receive placebo (DMSO+propylene glycol) or one of the GHRH-agonists (JI-38, MR-356/P-20356, MR-409/P-27409, all 50 μg/kg), starting 4 weeks post-MI. All treatment was given subcutaneously twice daily for 4 weeks.
Rat hearts were processed using routine histological procedures. Samples were fixed in formalin.
(§2) Paraffin sections were deparaffinized and rehydrated by immersion in xylene followed by a graded series of ethanol. Antigen retrieval was performed by a heat-induced method with citrate buffer (Dako, Carpinteria, Calif.). After blocking with 10% normal donkey serum, sections were incubated with a primary antibody at 37° C. for 1 hour, followed by application of secondary antibody. Omission of the primary antibodies on parallel sections was used as negative control. Nuclei were counterstained with DAPI (Invitrogen, Carlsbad, Calif.). The total numbers of positively-stained cells (c-kit, CD45, phospho-histone H3 [pH3]) were quantified per slide to calculate the number of cells per section on each sample. Morphometric analysis was performed using Adobe Photoshop CS3 (San Jose, Calif.).

[2] = tested on: myocardial infarction (Fisher-344 rats); experiment: Immunostaining of heart tissue (pH3, c-kit, arterioles), rat MI model (Example 13); assay type: in vivo; details: for c-kit (positive cells in the heart) / phospho H3 (positive cells in the heart): 50 μg/kg s.c. twice daily for 4 weeks, mean ± SEM; for number of arterioles: isolectin / SMA22a co-staining of heart sections
Method: as §1, §2
Heart sections were co-stained with isolectin (endothelial cell marker) and vascular smooth muscle (SMA22a) to identify arterioles which play a crucial role in cardiac repair. […] An inverse correlation between number of arterioles and infarct size was observed (FIG. 5C).

GH release [3] = experiment: GH releasing potency in vivo, subcutaneous administration (Example 14, Table 12); design: species or system rat; details: for Serum GH level at selected time after injection (ng/ml), 0 min / Serum GH level at selected time after injection (ng/ml), 15 min / Serum GH level at selected time after injection (ng/ml), 30 min: male rats, dose 3 μg/kg, mean ± SEM
Outline: (§3)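 Potency is expressed relative to GHRH(1-29)NH2 and JI-38 (each = 1), via equivalent GHRH(1-29)NH2 dose read from a standard curve. Peptides in 5% mannitol given i.v. or s.c. to anaesthetised male Sprague-Dawley rats (200-250 g); serum GH measured by ELISA at selected times.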

GH release [4] = experiment: GH releasing potency in vivo, intravenous administration (Example 14, Table 13); design: species or system rat; details: i.v.; for Serum GH level at selected time after injection (ng/ml), 0 min / Serum GH level at selected time after injection (ng/ml), 5 min / Serum GH level at selected time after injection (ng/ml), 15 min: dose 1 μg/kg, mean ± SEM
Outline: as §3

GHRH receptor [5] = biological target: T1, GHRH receptor (Homo sapiens, UniProt Q02643); experiment: GHRH receptor binding, competition with 125I-labeled JV-1-42, human pituitary membrane homogenates (Table 5); design: Normal human pituitaries were purchased from the National Hormone and Peptide Program; tissue National Hormone and Peptide Program (A.F. Parlow, Harbor-UCLA Medical Center, Torrance, Calif.); host or cells: normal human pituitary, membrane fraction; details: for Relative affinity (Binding potency) vs GHRH: GHRH(1-29) = 1, Table 5; for Relative affinity (Binding potency) vs JI-38: JI-38 = 1, Table 5
T1 sequence (Q02643 23-423): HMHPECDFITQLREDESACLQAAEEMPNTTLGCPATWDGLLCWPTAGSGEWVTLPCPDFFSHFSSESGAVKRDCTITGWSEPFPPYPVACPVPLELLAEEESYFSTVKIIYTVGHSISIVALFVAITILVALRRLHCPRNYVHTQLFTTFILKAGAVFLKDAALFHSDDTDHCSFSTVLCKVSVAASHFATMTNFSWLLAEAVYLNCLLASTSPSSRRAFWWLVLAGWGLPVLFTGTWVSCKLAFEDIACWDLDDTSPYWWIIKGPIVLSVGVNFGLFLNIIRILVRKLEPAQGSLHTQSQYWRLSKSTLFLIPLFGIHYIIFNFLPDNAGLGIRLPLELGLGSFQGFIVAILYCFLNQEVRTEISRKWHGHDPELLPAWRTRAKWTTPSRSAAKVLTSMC
Method: Normal human pituitaries were purchased from the National Hormone and Peptide Program (A.F. Parlow, Los Angeles, County Harbor-UCLA Medical Center, Torrance, Calif.). Briefly, in competitive binding analysis, ^125I-labeled JV-1-42 ([…]) was displaced by GHRH agonists at 10^−6 to 10^−12 M.
The final binding affinities were expressed as IC50 values and were calculated by using the LIGAND PC computerized curve-fitting program of Munson and Rodbard as modified by McPherson.

GHRH receptor [6] = biological target: T1, GHRH receptor; experiment: GHRH receptor binding, competition with 125I-labeled JV-1-42, human pituitary membrane homogenates (Table 7); design: Normal human pituitaries were purchased from the National Hormone and Peptide Program; tissue National Hormone and Peptide Program (A.F. Parlow, Harbor-UCLA Medical Center, Torrance, Calif.); host or cells: normal human pituitary, membrane fraction; details: for Relative affinity (Binding potency) vs JI-38: JI-38 = 1, Table 7
Description: Normal human pituitaries were purchased from the National Hormone and Peptide Program (A.F. Parlow, Los Angeles, County Harbor-UCLA Medical Center, Torrance, Calif.).

SMILES	MI size (%) [1]	c-kit (positive cells in the heart) [2]	phospho H3 (positive cells in the heart) [2]	number of arterioles [2]	Serum GH level at selected time after injection (ng/ml), 0 min (GH release [3]; s.c.)	Serum GH level at selected time after injection (ng/ml), 15 min (GH release [3]; s.c.)	Serum GH level at selected time after injection (ng/ml), 30 min (GH release [3]; s.c.)	Relative potency compared to GHRH(1-29), 15 min (GH release [3]; s.c.)	Relative potency compared to JI-38, 15 min (GH release [3]; s.c.)	Relative potency compared to GHRH(1-29), 30 min (GH release [3]; s.c.)	Relative potency compared to JI-38, 30 min (GH release [3]; s.c.)	Serum GH level at selected time after injection (ng/ml), 0 min (GH release [4])	Serum GH level at selected time after injection (ng/ml), 5 min (GH release [4]; 5 min)	Serum GH level at selected time after injection (ng/ml), 15 min (GH release [4]; 15 min)	Relative affinity (Binding potency) vs GHRH (GHRH receptor [5])	Relative affinity (Binding potency) vs JI-38 (GHRH receptor [5])	Relative affinity (Binding potency) vs JI-38 (GHRH receptor [6])	further results
CCCC[C@H](NC(=O)[C@@H](NC(=O)[C@H](CC(=O)O)NC(=O)[C@H](CCC(N)=O)NC(=O)[C@H](CC(C)C)NC(=O)[C@H](CC(C)C)NC(=O)[C@H](CCCN)NC(=O)[C@H](CCCNC(=N)N)NC(=O)[C@H](C)NC(=O)[C@H](CO)NC(=O)[C@H](CC(C)C)NC(=O)[C@H](CCC(N)=O)NC(=O)[C@H](CC)NC(=O)[C@H](CC(C)C)NC(=O)[C@@H](NC(=O)[C@H](CCCN)NC(=O)[C@H](CCCNC(=N)N)NC(=O)[C@H](Cc1ccc(O)cc1)NC(=O)[C@H](CO)NC(=O)[C@H](CCC(N)=O)NC(=O)[C@@H](NC(=O)[C@H](Cc1ccccc1)NC(=O)[C@@H](NC(=O)[C@H](C)NC(=O)[C@H](CC(=O)O)NC(=O)[C@H](C)NC(=O)CCc1ccc(O)cc1)[C@@H](C)CC)[C@@H](C)O)C(C)C)[C@@H](C)CC)C(=O)N[C@@H](CC(=O)O)C(=O)NCCCCNC(=N)N [JI-38, [Dat^1, Gln^8, Orn^12,21, Abu^15, Nle^27, Asp^28, Agm^29]hGHRH(1-29)NH2, reference compound] (Desaminotyrosyl-ADAIFTQSYR[Orn]VL[Abu]QLSAR[Orn]LLQDI[Nle]D-Agmatine)	42 ± 1.3 %	53 ± 6.7	71 ± 9.2	significantly increased	33.2 ± 2.8 ng/mL	230.0 ± 15.1 ng/mL	128.7 ± 13.3 ng/mL	63.1	1.00	111.8	1.00	48.0 ± 10.4 ng/mL	538 ± 58.3 ng/mL	198 ± 18.1 ng/mL	2.4	1	1	Relative potency, 5 min (GH release [4]; 5 min, JI-38 = 1): 1; Relative potency, 15 min (GH release [4]; 15 min, JI-38 = 1): 1; IC50 (GHRH receptor [5]; 125I-JV-1-42, human pituitary membranes, Table 5): 1.71 nM; IC50 (GHRH receptor [6]; 125I-JV-1-42, human pituitary membranes, Table 7): 4.35 nM
CCCC[C@H](NC(=O)[C@@H](NC(=O)[C@H](CC(=O)O)NC(=O)[C@H](CCC(N)=O)NC(=O)[C@H](CC(C)C)NC(=O)[C@H](CC(C)C)NC(=O)[C@H](CCCN)NC(=O)[C@H](CCCNC(=N)N)NC(=O)[C@H](C)NC(=O)[C@H](CO)NC(=O)[C@H](CC(C)C)NC(=O)[C@H](CCC(N)=O)NC(=O)[C@H](CC)NC(=O)[C@H](CC(C)C)NC(=O)[C@@H](NC(=O)[C@H](CCCN)NC(=O)[C@H](CCCNC(=N)N)NC(=O)[C@H](Cc1ccc(O)cc1)NC(=O)[C@H](CO)NC(=O)[C@H](CC(N)=O)NC(=O)[C@@H](NC(=O)[C@H](Cc1c(F)c(F)c(F)c(F)c1F)NC(=O)[C@@H](NC(=O)[C@H](C)NC(=O)[C@H](CC(=O)O)NC(=O)[C@@H](C)NC(=O)CCc1ccc(O)cc1)[C@@H](C)CC)[C@@H](C)O)C(C)C)[C@@H](C)CC)C(=O)N[C@@H](CO)C(=O)N[C@@H](CCCNC(=N)N)C(=O)NCCCC(N)=O [Peptide P-25502, [Dat^1, D-Ala^2, Fpa5^6, Orn^12, Abu^15, Orn^21, Nle^27, Gab^30]hGHRH(1-30)NH2] (Desaminotyrosyl-[dA]DAI[Phe(F5)]TNSYR[Orn]VL[Abu]QLSAR[Orn]LLQDI[Nle]SR[GABA]-NH2)					61.7 ± 8.1 ng/mL	266.7 ± 21^ ng/ml	153.2 ± 33.3 ng/mL	76.5	1.21	152.3	1.36	59.9 ± 15.9 ng/mL	1253 ± 185 ng/mL	575 ± 20.9 ng/mL	58.0	24.4	13.18	potency as compared to JI-38 in both i.v. and s.c. tests (GH release [3]; both i.v. and s.c. tests): increased potency as compared to JI-38; Relative GH-releasing potency compared to JI-38 in s.c. tests (fold, range over time points) (GH release [3]; s.c., time not specified, listed as MR-502): 1.2-1.4; GH-releasing potency after intravenous administration (in words) (GH release [4]): highest potency for GH release
CCCC[C@H](NC(=O)[C@@H](NC(=O)[C@H](CC(=O)O)NC(=O)[C@H](CCC(N)=O)NC(=O)[C@H](CC(C)C)NC(=O)[C@H](CC(C)C)NC(=O)[C@H](CCCN)NC(=O)[C@H](CCCNC(=N)N)NC(=O)[C@H](C)NC(=O)[C@H](CO)NC(=O)[C@H](CC(C)C)NC(=O)[C@H](CCC(N)=O)NC(=O)[C@H](CC)NC(=O)[C@H](CC(C)C)NC(=O)[C@@H](NC(=O)[C@H](CCCN)NC(=O)[C@H](CCCNC(=N)N)NC(=O)[C@H](Cc1ccc(O)cc1)NC(=O)[C@H](CO)NC(=O)[C@H](CC(N)=O)NC(=O)[C@@H](NC(=O)[C@H](Cc1ccccc1)NC(=O)[C@@H](NC(=O)[C@H](C)NC(=O)[C@H](CC(=O)O)NC(=O)[C@@H](C)NC(=O)[C@H](Cc1ccc(O)cc1)NC)[C@@H](C)CC)[C@@H](C)O)C(C)C)[C@@H](C)CC)C(=O)N[C@@H](CC(=O)O)C(=O)N[C@@H](CCCNC(=N)N)C(=O)NC [Peptide P-27409, [N—Me-Tyr^1, D-Ala^2, Orn^12, Abu^15, Orn^21, Nle^27, Asp^28]hGHRH(1-29)NH—CH3] (H-[NMeY][dA]DAIFTNSYR[Orn]VL[Abu]QLSAR[Orn]LLQDI[Nle]DR-NHMe)	42 ± 1.9 %	68 ± 5.5	47 ± 5.8	significantly increased	18.9 ± 3.1 ng/mL	427.4 ± 62.4 ng/mL	256.7 ± 20.7 ng/mL	141.3	2.24*	380.6							4.10	GH-releasing potency after s.c. administration (in words) (GH release [3]; s.c.): significantly higher potencies at 30 minutes than at 15 minutes
